Data on 30 compounds can be found in patent US11939319B2, “Pyridinyl and pyrazinyl-(asa)indolsulfonamides” (UCB Pharma GmbH, priority 2018, dated 2024).

Where only a bound is given, the exact number is not on record here.

In the assay the target is GPR17 (Homo sapiens, UniProt Q13304). The assay is described as follows: cAMP accumulation functional assay (HTRF) in CHO hGPR17 cells. Type of assay: cell-based. Also on record: host or cells: Flp-In T-REx CHO cells, expression induced with doxycycline. The note with it: Schild analysis against MDL29,951, 5 μM forskolin, activity range, read-out: cAMP assay pA2 (converted). On the procedure:
Flp-In T-REx CHO cells stably expressing human GPR17 receptor (CHO hGPR17) from Evi Kostenis' lab (Bonn University, Germany) were cultured at 37° C. in a humidified atmosphere of 5% CO2. Cells were grown in DMEM with Nutrient Mixture F-12 supplemented with hygromycin B (500 μg/ml) and blasticidin (30 μg/ml). Expression from the Flp-In locus was induced by treatment with doxycycline (1 μg/ml) for 16-20 h prior assays.
GPR17 activation can also recruit Gi-type G-protein signaling, resulting in a decrease of intracellular cyclic adenosine monophosphate (cAMP). Intracellular cAMP changes can be measured using the HTRF cAMP dynamic assay kit from CisBio (Codolet, France). Using homogenous time-resolved fluorescence technology (HTRF), the assay is based on competition between native cAMP produced by cells and cAMP labelled with the dye d2. The tracer binding was determined by an anti-cAMP antibody labeled with cryptate.
CHO hGPR17 were detached with PBS containing EDTA and dispatched in black 384-well plates with 5,000 cells per well. Cells were first incubated for 30 minutes at room temperature in HBSS Hepes (pH 7.4) containing vehicle or varying concentrations of test GPR17 antagonist/inverse agonist compounds. Then, a dose response curve of MDL29,951 GPR17 agonist (typically from 10^−5M to 10^−10M) was added on vehicle and on each test GPR17 antagonist/inverse agonist compound concentration in a final volume of 20 μL HBSS Hepes buffer (pH 7.4) containing 1% DMSO, 5 μM forskolin and 0.1 mM IBMX. After 60 minutes incubation at room temperature, the reaction is terminated and the cells lysed by adding the d2 detection reagent and the cryptate reagent in 10 μL lysis buffer each according to manufacturer's instructions. After 60 minutes incubation, changes in cAMP concentrations are measured according to manufacturer's instructions using an Envision plate reader with laser excitation. All incubations were performed in duplicate. Data was analyzed using GraphPad Prism software using the 4-parameter logistic equation to measure MDL29,951 pEC50s in absence and presence of GPR17 antagonist/inverse agonist test compounds. Dose ratio (DR) were plotted against antagonist concentrations and Schild analysis provided estimated affinity pA2 of GPR17 antagonist/inverse agonist test compounds.
The activities of the Example compounds tested are depicted in the table below. The activity ranges A, B and C refer to pA2 values in the cAMP assay as follows: “A”: pA2 6.5≤x<7.5, “B”: pA2 7.5≤x<8.5, “C”: 8.5≤pA2.
On the technique in general: Changes in cAMP serve as a functional read-out for many G protein-coupled receptors.

GPR17, sequence (Q13304 29-367 limits assumed): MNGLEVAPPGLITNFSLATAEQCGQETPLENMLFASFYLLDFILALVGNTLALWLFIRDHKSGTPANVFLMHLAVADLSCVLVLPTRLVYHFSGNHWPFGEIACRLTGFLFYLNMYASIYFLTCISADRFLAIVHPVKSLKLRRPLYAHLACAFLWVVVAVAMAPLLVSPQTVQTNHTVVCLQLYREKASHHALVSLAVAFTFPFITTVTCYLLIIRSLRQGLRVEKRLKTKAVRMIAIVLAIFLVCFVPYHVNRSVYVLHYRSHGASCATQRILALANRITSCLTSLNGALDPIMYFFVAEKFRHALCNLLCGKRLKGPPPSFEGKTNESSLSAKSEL

For `COc1nc(OC(F)F)c(F)cc1NS(=O)(=O)c1c[nH]c2cc(Cl)ccc12` [Example I-9, 6-chloro-N-[6-(difluoromethoxy)-5-fluoro-2-methoxypyridin-3-yl]-1H-indole-3-sulfonamide], the Kb is at most 0.00316 µM.

Regarding `COc1nc(Cl)cnc1NS(=O)(=O)c1c[nH]c2cc(Cl)ccc12` [Example I-11, 6-chloro-N-(5-chloro-3-methoxypyrazin-2-yl)-1H-indole-3-sulfonamide], the Kb was at most 0.00316 µM.

In the case of `COc1nc(OCCF)c(F)cc1NS(=O)(=O)c1c[nH]c2cc(Cl)ccc12` [Example I-12, 6-chloro-N-[5-fluoro-6-(2-fluoroethoxy)-2-methoxypyridin-3-yl]-1H-indole-3-sulfonamide], the Kb is at most 0.00316 µM.

Consider `COc1nc(OCCF)ccc1NS(=O)(=O)c1c[nH]c2cc(Cl)ccc12` [Example I-13, 6-chloro-N-[6-(2-fluoroethoxy)-2-methoxypyridin-3-yl]-1H-indole-3-sulfonamide], for which the Kb is 0.00316 to 0.0316 µM.

As to `COc1nc(OC(F)F)c(F)cc1NS(=O)(=O)c1c[nH]c2cc(C(F)F)ccc12` [Example I-16, N-[6-(difluoromethoxy)-5-fluoro-2-methoxypyridin-3-yl]-6-(difluoromethyl)-1H-indole-3-sulfonamide], the Kb is at most 0.00316 µM.

Consider `COc1nc(OC(F)F)c(F)cc1NS(=O)(=O)c1c[nH]c2nc(Cl)ccc12` [Example I-22, 6-chloro-N-[6-(difluoromethoxy)-5-fluoro-2-methoxypyridin-3-yl]-1H-pyrrolo[2,3-b]pyridine-3-sulfonamide], for which the Kb is at most 0.00316 µM.

`O=S(=O)(Nc1cnc(Cl)cc1Cl)c1c[nH]c2cc(Cl)ccc12` [Example I-26, 6-chloro-N-(4,6-dichloropyridin-3-yl)-1H-indole-3-sulfonamide]: the Kb was 0.0316 to 0.316 µM.

In the case of `COc1nc(Cl)ccc1NS(=O)(=O)c1c[nH]c2cc(C(F)F)ccc12` [Example I-27, N-(6-chloro-2-methoxypyridin-3-yl)-6-(difluoromethyl)-1H-indole-3-sulfonamide], the Kb was 0.0316 to 0.316 µM.

In the case of `COc1nc(Cl)ccc1NS(=O)(=O)c1c[nH]c2nc(C(F)F)ccc12` [Example I-28, N-(6-chloro-2-methoxypyridin-3-yl)-6-(difluoromethyl)-1H-pyrrolo[2,3-b]pyridine-3-sulfonamide], the Kb is 0.0316 to 0.316 µM.

Consider `COc1nc(Cl)c(F)cc1NS(=O)(=O)c1c[nH]c2nc(C(F)F)ccc12` [Example I-29, N-(6-chloro-5-fluoro-2-methoxypyridin-3-yl)-6-(difluoromethyl)-1H-pyrrolo[2,3-b]pyridine-3-sulfonamide], for which the Kb is 0.00316 to 0.0316 µM.

As for `O=S(=O)(Nc1cc(F)c(OCC(F)F)nc1F)c1c[nH]c2nc(C(F)F)ccc12` [Example I-30, N-[6-(2,2-difluoroethoxy)-2,5-difluoro-3-pyridyl]-6-(difluoromethyl)-1H-pyrrolo[2,3-b]pyridine-3-sulfonamide], the Kb was 0.0316 to 0.316 µM.

Turning to `COc1nc(Cl)ccc1NS(=O)(=O)c1c[nH]c2nc(Cl)ccc12` [Example I-35, 6-chloro-N-(6-chloro-2-methoxypyridin-3-yl)-1H-pyrrolo[2,3-b]pyridine-3-sulfonamide], the Kb was 0.0316 to 0.316 µM.

For `COc1nc(OCCF)c(F)cc1NS(=O)(=O)c1c[nH]c2nc(Cl)ccc12` [Example I-36, 6-chloro-N-[5-fluoro-6-(2-fluoroethoxy)-2-methoxypyridin-3-yl]-1H-pyrrolo[2,3-b]pyridine-3-sulfonamide], the Kb was at most 0.00316 µM.

With `COc1nc(OC(F)F)ccc1NS(=O)(=O)c1c[nH]c2nc(Cl)ccc12` [Example I-37, 6-chloro-N-[6-(difluoromethoxy)-2-methoxy-3-pyridyl]-1H-pyrrolo[2,3-b]pyridine-3-sulfonamide], the Kb is 0.00316 to 0.0316 µM.

For the compound `COc1nc(OCC(F)F)ccc1NS(=O)(=O)c1c[nH]c2cc(Cl)ccc12` [Example I-38, 6-chloro-N-[6-(2,2-difluoroethoxy)-2-methoxypyridin-3-yl]-1H-indole-3-sulfonamide], the Kb is at most 0.00316 µM.

With `COc1ccc(NS(=O)(=O)c2c[nH]c3cc(Cl)ccc23)c(OCC(F)F)n1` [Example I-39, 6-chloro-N-[2-(2,2-difluoroethoxy)-6-methoxypyridin-3-yl]-1H-indole-3-sulfonamide], the Kb is 0.00316 to 0.0316 µM.

Turning to `COc1cc(OC(F)F)ncc1NS(=O)(=O)c1c[nH]c2cc(Cl)ccc12` [Example I-40, 6-chloro-N-[6-(difluoromethoxy)-4-methoxypyridin-3-yl]-1H-indole-3-sulfonamide], the Kb was 0.00316 to 0.0316 µM.

With `O=S(=O)(Nc1cc(F)c(C2CC2)nc1F)c1c[nH]c2cc(Cl)ccc12` [Example I-41, 6-chloro-N-(6-cyclopropyl-2,5-difluoropyridin-3-yl)-1H-indole-3-sulfonamide], the Kb was 0.00316 to 0.0316 µM.

Take `COc1nc(OCC(F)F)c(F)cc1NS(=O)(=O)c1c[nH]c2cc(Cl)ccc12` [Example I-42, 6-chloro-N-[6-(2,2-difluoroethoxy)-5-fluoro-2-methoxypyridin-3-yl]-1H-indole-3-sulfonamide]: the Kb was at most 0.00316 µM.

On to `COc1nc(OCCOC(F)F)c(F)cc1NS(=O)(=O)c1c[nH]c2cc(Cl)ccc12` [Example I-43, 6-chloro-N-[6-[2-(difluoromethoxy)ethoxy]-5-fluoro-2-methoxypyridin-3-yl]-1H-indole-3-sulfonamide], for which the Kb is at most 0.00316 µM.

In the case of `O=S(=O)(Nc1cc(F)c(OCC(F)F)nc1F)c1c[nH]c2nc(Cl)ccc12` [Example I-44, 6-chloro-N-[6-(2,2-difluoroethoxy)-2,5-difluoropyridin-3-yl]-1H-pyrrolo[2,3-b]pyridine-3-sulfonamide], the Kb was 0.0316 to 0.316 µM.

Consider `COc1nc(OCC(F)F)ccc1NS(=O)(=O)c1c[nH]c2nc(Cl)ccc12` [Example I-45, 6-chloro-N-[6-(2,2-difluoroethoxy)-2-methoxypyridin-3-yl]-1H-pyrrolo[2,3-b]pyridine-3-sulfonamide], for which the Kb was 0.00316 to 0.0316 µM.

Turning to `COc1nc(OCC(F)F)c(F)cc1NS(=O)(=O)c1c[nH]c2nc(Cl)ccc12` [Example I-46, 6-chloro-N-[6-(2,2-difluoroethoxy)-5-fluoro-2-methoxypyridin-3-yl]-1H-pyrrolo[2,3-b]pyridine-3-sulfonamide], the Kb is at most 0.00316 µM.

As for `O=S(=O)(Nc1cc(F)c(C2CC2)nc1F)c1c[nH]c2nc(Cl)ccc12` [Example I-47, 6-chloro-N-(6-cyclopropyl-2,5-difluoropyridin-3-yl)-1H-pyrrolo[2,3-b]pyridine-3-sulfonamide], the Kb is 0.00316 to 0.0316 µM.

Consider `COc1nc(OCCOC(F)F)c(F)cc1NS(=O)(=O)c1c[nH]c2nc(Cl)ccc12` [Example I-48, 6-chloro-N-[6-[2-(difluoromethoxy)ethoxy]-5-fluoro-2-methoxypyridin-3-yl]-1H-pyrrolo[2,3-b]pyridine-3-sulfonamide], for which the Kb is at most 0.00316 µM.

In the case of `COc1ncc(F)cc1NS(=O)(=O)c1c[nH]c2nc(Cl)ccc12` [Example I-49, 6-chloro-N-(5-fluoro-2-methoxypyridin-3-yl)-1H-pyrrolo[2,3-b]pyridine-3-sulfonamide], the Kb was 0.0316 to 0.316 µM.

As to `COc1nc(C2CC2)c(F)cc1NS(=O)(=O)c1c[nH]c2cc(Cl)ccc12` [Example I-50, 6-chloro-N-(6-cyclopropyl-5-fluoro-2-methoxypyridin-3-yl)-1H-indole-3-sulfonamide], the Kb was at most 0.00316 µM.

Regarding `COc1nc(OCC(F)F)c(F)cc1NS(=O)(=O)c1c[nH]c2cc(OC(F)F)ccc12` [Example I-51, N-[6-(2,2-difluoroethoxy)-5-fluoro-2-methoxypyridin-3-yl]-6-(difluoromethoxy)-1H-indole-3-sulfonamide], the Kb was at most 0.00316 µM.

As for `O=S(=O)(Nc1cc(F)c(OCC(F)F)nc1F)c1c[nH]c2cc(C(F)F)ccc12` [Example I-52, N-[6-(2,2-difluoroethoxy)-2,5-difluoropyridin-3-yl]-6-(difluoromethyl)-1H-indole-3-sulfonamide], the Kb was 0.00316 to 0.0316 µM.

Consider `COc1nc(OCC(F)F)ccc1NS(=O)(=O)c1c[nH]c2nc(C(F)F)ccc12` [Example I-53, N-[6-(2,2-difluoroethoxy)-2-methoxypyridin-3-yl]-6-(difluoromethyl)-1H-pyrrolo[2,3-b]pyridine-3-sulfonamide], for which the Kb was 0.00316 to 0.0316 µM.
